Experimental data as given in ChEMBL document CHEMBL1154631 (Bioorg Med Chem Lett, 2009).

Legend:
Adenosine receptor A1 = biological target: T1, Adenosine receptor A1 (Homo sapiens, UniProt P30542); assay: Binding affinity to adenosine receptor A1
T1 sequence (P30542 whole entry): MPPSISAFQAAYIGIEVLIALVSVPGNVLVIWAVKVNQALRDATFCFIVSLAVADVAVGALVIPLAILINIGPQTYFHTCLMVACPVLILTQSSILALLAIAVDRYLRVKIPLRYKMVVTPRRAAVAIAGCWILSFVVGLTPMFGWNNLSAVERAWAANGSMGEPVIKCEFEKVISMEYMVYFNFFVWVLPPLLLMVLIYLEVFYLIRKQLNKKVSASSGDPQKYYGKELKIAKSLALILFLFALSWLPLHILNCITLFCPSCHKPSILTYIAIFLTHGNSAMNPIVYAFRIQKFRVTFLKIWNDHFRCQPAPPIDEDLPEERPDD

Mu-type opioid receptor = Mu-type opioid receptor (Homo sapiens, UniProt P35372)
Chain of Mu-type opioid receptor (P35372 whole entry): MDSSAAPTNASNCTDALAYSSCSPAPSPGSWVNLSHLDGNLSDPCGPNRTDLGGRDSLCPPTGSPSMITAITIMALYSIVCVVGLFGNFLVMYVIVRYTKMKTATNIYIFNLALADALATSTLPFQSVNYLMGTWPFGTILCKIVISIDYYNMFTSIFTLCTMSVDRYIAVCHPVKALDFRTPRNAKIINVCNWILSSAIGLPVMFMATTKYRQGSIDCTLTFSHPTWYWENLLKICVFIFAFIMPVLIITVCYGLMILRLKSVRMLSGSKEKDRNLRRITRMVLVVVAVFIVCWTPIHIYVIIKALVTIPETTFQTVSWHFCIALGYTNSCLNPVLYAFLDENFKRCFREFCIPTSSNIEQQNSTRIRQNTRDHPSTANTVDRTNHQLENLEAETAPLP

C=CCN1CC[C@]23c4c5ccc(O)c4O[C@H]2C(=O)CC[C@@]3(O)[C@H]1C5 [NALOXONE]
Ki (Adenosine receptor A1): > 50 µM

CCCn1c(=O)c2[nH]c(C3CCCC3)nc2n(CCC)c1=O [1,3-DIPROPYL-8-CYCLOPENTYLXANTHINE [DPCPX]]
Ki (Mu-type opioid receptor): > 100 µM

C[C@@H](NC(=O)[C@@H](N)Cc1ccc(O)cc1)C(=O)NCC(=O)N(C)[C@@H](Cc1ccccc1)C(=O)NCCO [DAMGO]
Ki (Adenosine receptor A1): > 100 µM
